Source: patent publication US8586505B2 (SDS Biotech K. K., priority 2009, dated 2013)

Legend:
[1] = test system: Pseudoperonospora cubensis; assay: Test of examining control effect on Pseudoperonospora cubensis (potted cucumber plants); type: in vivo; settings: 96 h, 10% wettable powder adjusted to 125 ppm, 15 ml/pot sprayed on potted cucumber plants one day before spray inoculation, assessed after 1 day wet chamber and 3 days greenhouse, read-out: Determination of control effect (preventive value) on Pseudoperonospora cubensis
Outline: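 Cucumber plants (Sagamihanjiro, 2.5-leaf stage) sprayed with 125 ppm compound solution from 10% wettable powder, 15 ml/pot. One day later, spray-inoculated with P. cubensis conidia (1.0×10^4 cells/ml), kept 1 day at 21° C wet, then 3 days in greenhouse. Preventive value derived from lesion area relative to untreated plants.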

[2] = test system: Phytophthora infestans; assay: whole plant or invertebrate; type: in vivo; settings: in Solanum lycopersicum, 96 h, read-out: Determination of control effect (preventive value)
[3] = test system: Sphaerotheca fuliginea; assay: Test of examining control effect on Sphaerotheca fuliginea (potted cucumber plants); type: in vivo; settings: Podosphaera fuliginea, 336 h; 10% wettable powder adjusted to 125 ppm, 15 ml/pot sprayed on potted cucumber plants one day before spray inoculation; assessed after 14 days in greenhouse; read-out: Determination of control effect (preventive value) on Sphaerotheca fuliginea
Outline: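 Cucumber plants (Sagamihanjiro, 2nd leaf stage) sprayed with 125 ppm compound (from 10% wettable powder), inoculated one day later with S. fuliginea conidia (1.0×10^5 cells/ml); lesion area scored after 14 days in greenhouse. Preventive value vs untreated; ≥60% high, <60% low control.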

[4] = test system: Tetranychus urticae eggs; assay: Test of examining effect on Tetranychus urticae eggs (ovicidal rate); type: in vivo; settings: 144 h, 0.4 ml sprayed, unhatched eggs counted six days later, read-out: Determination (ovicidal rate)
Procedure: Thereafter, the released female adults were removed. […] Six days later, the number of unhatched eggs was counted, and an ovicidal rate was calculated.

SMILES	pest or weed control at 125 µg/mL [1] [%]	pest or weed control at 125 ppm [2] [%]	pest or weed control at 125 µg/mL [3] [%]	pest or weed control at 250 ppm [4] [%]	melting point [°C]
COC(=O)c1cccc(C#CCCNc2ncnc3sccc23)c1 [compound 30]	60 to 100	0 to 60	0 to 60	60 to 80	163 to 166
C(#Cc1ccccc1)CCNc1ncnc2sccc12 [compound 10, 4-(4-Phenyl-3-butynylamino)thieno[2,3-d]pyrimidine]	60 to 100	60 to 100	60 to 100	60 to 80	
CC(CC#Cc1ccc(C(F)(F)F)cc1Cl)Nc1ncnc2sccc12 (stereo not shown) [compound 257]	60 to 100	60 to 100	60 to 100	80 to 95	
CCC(CC#Cc1ccccc1)Nc1ncnc2sccc12 (stereo not shown) [compound 267]	60 to 100	0 to 60	60 to 100	60 to 80	
Cc1ccc(C#CCC(C)Nc2ncnc3sccc23)c(C)c1 (stereo not shown) [compound 259]	60 to 100	60 to 100	60 to 100	≥ 95	
COc1ccc(C#CCCNc2ncnc3sccc23)cc1OC [compound 24]	60 to 100	0 to 60	60 to 100	60 to 80	182 to 184
C=C(C#CCCNc1ncnc2ccccc12)c1ccccc1 [compound 95]	60 to 100	0 to 60	0 to 60	60 to 80	
CC(CC#Cc1ccc(Cl)cc1C(F)(F)F)Nc1ncnc2c(F)cccc12 (stereo not shown) [compound 348]	60 to 100	0 to 60	60 to 100	80 to 95	
CC(CC#Cc1ccc(F)cc1Cl)Nc1ncnc2sccc12 (stereo not shown) [compound 247]	60 to 100	60 to 100	60 to 100	60 to 80	
FC(F)=Cc1ccc(C#CCCNc2ncnc3ccccc23)cc1 [compound 113]	60 to 100	0 to 60	60 to 100	≥ 95	
COc1cccc(C#CCCNc2ncnc3sccc23)c1 [compound 22]	60 to 100	0 to 60	60 to 100	60 to 80	
CC(CC#Cc1ccccc1C(F)(F)F)Nc1ncnc2sccc12 (stereo not shown) [compound 233]	60 to 100	60 to 100	60 to 100	80 to 95	
Clc1ccc(C#CCCNc2ncnc3sccc23)cc1 [compound 16]	60 to 100	0 to 60	60 to 100	60 to 80	
CC(CC#Cc1ccc(Cl)cc1C(F)(F)F)Nc1ncnc2sccc12 (stereo not shown) [compound 258]	60 to 100	60 to 100	60 to 100	60 to 80	
Cc1ncnc(NC(C)CC#Cc2ccc(Cl)cc2C(F)(F)F)c1Cl (stereo not shown) [compound 385]	60 to 100	0 to 60	60 to 100	≥ 95	
CC(CC#Cc1ccc(Cl)cc1CO)Nc1ncnc2sccc12 (stereo not shown) [compound 245]	60 to 100	60 to 100	60 to 100	80 to 95	
CC(CC#Cc1ccc(C(C)C)cc1C(F)(F)F)Nc1ncnc2ccccc12 (stereo not shown) [compound 289]	60 to 100	0 to 60	60 to 100	≥ 95	
